Measured values published in patent publication US20020028938A1, “Prostaglandin endoperoxide H synthase biosynthesis inhibitors” (priority 1997, published 2002).
Where “and” joins values, the source holds several entries; their conditions need not be identical. Equal entries are not always repeated.

Experiments:
[1] = tested on: prostaglandin biosynthesis in vivo (pleural lavage eicosanoids); test: Rat carrageenan pleural inflammation (CIP) model; settings: 10 mpk oral; for inhibition in vivo at 10 mg/kg: 4 h, read-out: CIP % Inhib. @ 10 mpk
Description: For oral administration, test compounds were suspended on the day of use in 100% polyethyleneglycol (PEG 400) with a motorized homogenizer equipped with a Teflon-coated pestle (TRI-R Instrument, Jamaica, N.Y.).
To compare the mean responses of the treatment groups, analysis of variance was applied. Percent inhibition values were determined by comparing the individual treatment mean values to the mean of the control group. Linear regression was used to estimate IC50's/ED50's in appropriate assays.
Pleural inflammation was induced in male adrenalectomized Sprague-Dawley rats following the method of Vinegar et al., Fed. Proc. 1976, 35, 2447-2456. Animals were orally dosed with experimental compounds, 30 minutes prior to the intrapleural injection of 2% lambda carrageenan (Sigma Chemical Co., St. Louis Mo.). Four hours later the animals were euthanized and the pleural cavities lavaged with ice cold saline. The lavage fluid was then added to two volumes of ice cold methanol (final methanol concentration 66%) to lyse cells and precipitate protein. Eicosanoids were determined by EIA as described above.

[2] = tested on: air pouch prostaglandin biosynthesis (Cox-2); test: Carrageenan induced air pouch prostaglandin biosynthesis model (CAP); assay type: in vivo, rat; settings: 3 mpk, rat; for inhibition in vivo at 3 mg/kg: 4 h, read-out: CAP % Inhib. @ 3 mpk
Method in brief: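 Male Sprague Dawley rats with dorsal air pouches (20 mL air day 0, 10 mL day 3) received 0.2% lambda carrageenan in saline into the pouch on day 7. Compounds dosed at 0.1 to 10 mg/kg 30 min before carrageenan; pouch lavaged 4 h later, prostaglandins measured by EIA. Percent inhibition versus control mean; ED50 by linear regression.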

[3] = tested on: carrageenan induced paw edema; test: Carrageenan induced paw edema (CPE) in rats; assay type: in vivo; settings: rat; for inhibition in vivo at 10 mg/kg / CPE % Inhib. @ 10 mpk: 10 mpk oral, 3 hours after carrageenan; for inhibition in vivo at 10 mg/kg: read-out: CPE % Inhib. @ 10 mpk
Method in brief: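 Male Sprague-Dawley rats (170–190 g) dosed orally in PEG 400, 1 h before subplantar 0.1 ml 1% lambda carrageenan in right hindpaw. Plethysmographic paw volume at 0 and 3 h; edema as difference, % inhibition versus control mean (±SEM), Dunnett's test, ED50 by linear regression.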

[4] = target: T1, recombinant human Cox-1 (r-hu Cox1) (Homo sapiens, UniProt P23219); test: Recombinant human PGHS-1 enzyme assay (RHUCX1); assay type: biochemical; settings: for IC50: read-out: RHUCX1 IC50 (parenthetical value)
T1 construct: made in house; host or cells: baculovirus/Sf9 insect cells (microsomes)
T1 sequence (P23219 24-599): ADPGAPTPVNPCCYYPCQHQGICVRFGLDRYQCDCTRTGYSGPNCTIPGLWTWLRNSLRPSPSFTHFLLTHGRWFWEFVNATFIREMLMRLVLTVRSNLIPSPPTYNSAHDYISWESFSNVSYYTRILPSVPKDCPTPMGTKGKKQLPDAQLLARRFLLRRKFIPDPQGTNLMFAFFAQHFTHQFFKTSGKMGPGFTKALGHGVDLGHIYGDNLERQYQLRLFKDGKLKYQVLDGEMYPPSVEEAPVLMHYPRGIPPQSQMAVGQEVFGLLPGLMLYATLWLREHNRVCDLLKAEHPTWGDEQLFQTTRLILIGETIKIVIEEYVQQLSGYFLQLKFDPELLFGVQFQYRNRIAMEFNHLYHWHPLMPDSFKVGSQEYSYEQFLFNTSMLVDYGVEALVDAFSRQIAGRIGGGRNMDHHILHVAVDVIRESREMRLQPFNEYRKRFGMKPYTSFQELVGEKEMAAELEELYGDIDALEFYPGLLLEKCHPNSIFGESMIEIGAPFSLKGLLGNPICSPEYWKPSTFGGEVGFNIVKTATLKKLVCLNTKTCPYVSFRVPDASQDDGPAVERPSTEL
Method in brief: (§1)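 Recombinant enzyme reaction ran 2.5 minutes at room temperature, then was quenched with HCl and neutralized with NaOH. PGE2 formed with and without drug was quantified by EIA against standards in the same milieu. Percent inhibition versus control mean; IC50 by linear regression.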

[5] = target: T2, recombinant human Cox-2 (r-hu Cox-2) (Homo sapiens, UniProt P35354); test: Recombinant human PGHS-2 enzyme assay (RHUCX2); assay type: biochemical; settings: for IC50: read-out: RHUCX2 IC50 (parenthetical value)
T2 construct: made in house; host or cells: baculovirus/Sf9 insect cells (microsomes)
T2 sequence (P35354 18-604): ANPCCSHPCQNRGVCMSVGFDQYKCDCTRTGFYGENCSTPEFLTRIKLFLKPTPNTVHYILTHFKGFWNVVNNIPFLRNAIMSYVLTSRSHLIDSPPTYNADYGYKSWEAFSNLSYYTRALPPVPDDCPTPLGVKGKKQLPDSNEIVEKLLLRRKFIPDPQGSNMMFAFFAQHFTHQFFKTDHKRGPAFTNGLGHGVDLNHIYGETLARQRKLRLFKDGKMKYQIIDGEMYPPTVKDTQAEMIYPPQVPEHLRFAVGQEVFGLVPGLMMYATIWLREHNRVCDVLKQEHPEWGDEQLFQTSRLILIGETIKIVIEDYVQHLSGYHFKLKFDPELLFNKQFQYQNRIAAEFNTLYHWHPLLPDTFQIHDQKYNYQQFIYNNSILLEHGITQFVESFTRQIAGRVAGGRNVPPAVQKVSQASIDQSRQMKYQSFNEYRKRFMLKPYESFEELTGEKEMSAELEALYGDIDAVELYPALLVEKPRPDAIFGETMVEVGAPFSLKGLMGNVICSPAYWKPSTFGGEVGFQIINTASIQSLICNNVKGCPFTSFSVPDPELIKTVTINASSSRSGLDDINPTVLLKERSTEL
Method in brief: as §1

[6] = target: T3, human amnionic whole cell cyclooxygenase-2 (WISH cells) (Homo sapiens, UniProt P35354); test: IL-1β induced PGE2 production in WISH cells; assay type: cell-based; settings: read-out: Wish IC50 (parenthetical value)
T3 construct: endogenous in cells; host or cells: human amnionic WISH cells, induced with IL-1beta
T3 sequence (P35354 18-604): T2 sequence (P35354 18-604)
Method in brief: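 Confluent (80%) WISH cells were stimulated with 5 ng/ml IL-1β in serum-free Neuman-Tytell medium, with or without test compound in DMSO (0.01% v/v). PGE2 in the culture medium was measured by EIA against standards prepared in the same medium, read by optical density.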

[7] = target: T4, Human Whole Platelet Cyclooxygenase-1 (Homo sapiens, UniProt P23219); test: Human Whole Platelet Cyclooxygenase-1 assay (HWPX); assay type: cell-based; settings: read-out: HWPX IC50 (parenthetical value)
T4 construct: from tissue; host or cells: human blood: isolated platelets (A4) or heparinised whole blood (A9)
T4 sequence (P23219 24-599): as the sequence (P23219 24-599) above
Method in brief: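 Washed platelets from healthy-donor ACD blood were pre-incubated with compound for 10 min, then stimulated with calcium ionophore A23187 (8.8 μM final) for 10 min. Reaction stopped with cold 6 mM EDTA; thromboxane in supernatants quantified with a commercial kit.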

[8] = read-out: RHUCX1 % Inh. at Dose
[9] = read-out: RHUCX2 % Inh. at Dose

| Compound | inhibition in vivo at 10 mg/kg [1] | melting point | inhibition in vivo at 3 mg/kg [2] | inhibition in vivo at 10 mg/kg [3] | inhibition at 100 µM [4, 8] | IC50 [5] | CIP % Inhib. @ 10 mpk [1] | CAP % Inhib. @ 3 mpk [2] | CPE % Inhib. @ 10 mpk [3] | CPE ED30 ([3]; oral) | IC50 [6] | IC50 [7] | inhibition at 0.01 µM ([5]; 0.01 μM, read-out: RHUCX2 % Inh. at Dose) | inhibition at 0.1 µM [5, 9] | inhibition at 1 µM [5, 9] | inhibition at 1 µM ([4]; 1 μM, read-out: RHUCX1 % Inh. at Dose) | inhibition at 10 µM [4, 8] | IC50 [4] |
| --- | --- | --- | --- | --- | --- | --- | --- | --- | --- | --- | --- | --- | --- | --- | --- | --- | --- | --- |
| CS(=O)(=O)c1ccc(-c2cnn(CC(F)(F)F)c(=O)c2-c2ccc(Cl)cc2)cc1 [Example 58, 2-(2,2,2-Trifluoroethyl)-4-(4-chlorophenyl)-5-[4-(methylsulfonyl)phenyl]-3(2H)-pyridazinone] | 42% | 55 to 57 °C | 67% | 14% | 0% | 950 nM | – | – | – | – | – | – | – | – | – | – | – | – |
| CCCc1ccc(-c2c(-c3ccc(S(C)(=O)=O)cc3)cnn(CC(F)(F)F)c2=O)cc1 [Example 66, 2-(2,2,2-Trifluoroethyl)-4-(4-n-proylphenl)-5-[4-(methylsulfonyl)phenyl]-3(2H)-pyridazinone] | – | – | – | – | – | – | 59% | 0% | 7% | – | – | – | – | – | – | – | – | – |
| NS(=O)(=O)c1ccc(-c2cnn(CC(F)(F)F)c(=O)c2-c2ccc(Cl)cc2)cc1 [Example 69, 2-(2,2,2-Trifluoroethyl)-4-(4-chlorophenyl)-5-[4-(aminosulfonyl)phenyl]-3(2H)-pyridazinone] | 61% | 154 to 156 °C | 87% | 45.5% | 2% | – | – | – | – | ED30 = 5.4 | 20 nM | 1140 nM | 30% | 29% | 88% | – | – | – |
| NS(=O)(=O)c1ccc(-c2cnn(CC(F)(F)F)c(=O)c2-c2ccc(Cl)c(F)c2)cc1 [Example 80, 2-(2,2,2-Trifluoroethyl)-4-(4-chloro-3-fluorophenyl)-5-[4-(aminosulfonyl)phenyl]-3(2H)-pyridazinone] | 60% | 214 to 215 °C | 91% | 28.5% | – | 64 nM | – | – | – | – | – | – | – | – | – | 37% | 41% | – |
| NS(=O)(=O)c1ccc(-c2cnn(CC=C(Cl)Cl)c(=O)c2-c2ccc(F)cc2)cc1 [Example 119, 2-(3,3-Dichloro-2-2-propenyl)-4-(4-fluorophenyl)-5-[4-(aminosulfonyl)phenyl)-3(2H)-pyridazinone] | 82% | 184 to 185 °C | 76% | 27% | – | 27 nM | – | – | – | – | 1 nM | 76 nM | – | – | – | – | – | 178 nM |
| CS(=O)(=O)c1ccc(-c2cnn(-c3ccc(F)c(F)c3)c(=O)c2-c2ccc(F)cc2)cc1 [Example 182, 2-(3,4-Difluorophenyl)-4-(4-fluorophenyl)-5-[4-(methylsulfonyl)phenyl]-3(2H)-pyridazinone] | 59% | 109 to 110 °C | 98% | 27% | – | 70 nM | – | – | – | – | – | – | – | – | – | – | – | 5010 nM |
| CS(=O)(=O)c1ccc(-c2cnn(-c3ccccc3F)c(=O)c2-c2ccc(F)cc2)cc1 [Example 185, 2-(2-Fluorophenyl)-4-(4-fluorophenyl)-5-[4-(methlsulfonyl)phenyl]-3(2H)-pyridazinone] | – | – | – | – | – | – | 59% | 53% | 20% | – | – | – | – | – | – | – | – | – |
| CS(=O)(=O)c1ccc(-c2cnn(-c3ccc(F)c(Cl)c3)c(=O)c2-c2ccc(F)cc2)cc1 [Example 187, 2-(3-Chloro-4-fluorophenyl)-4-(4-fluorophenyl)-5-[4-(methylsulfonyl)phenyl]-3(2H)-pyridazinone] | 51% | 155 to 157 °C | 30% | 28% | 2% | 94 nM | – | – | – | – | 15 nM | 12600 nM | – | – | – | – | – | – |
| CS(=O)(=O)c1ccc(-c2cnn(-c3ccc(Cl)c(F)c3)c(=O)c2-c2ccc(F)cc2)cc1 [Example 190] | 60% | 102 to 110 °C | 71% | 28% | – | 134 nM | – | – | – | – | 30 nM | 9960 nM | – | – | – | – | – | 1880 nM |
| NS(=O)(=O)c1ccc(-c2cnn(Cc3ccccc3)c(=O)c2-c2ccc(F)cc2)cc1 [Example 384, 2-Benzyl-4-(4-fluorophenyl)-5-[4-(aminosulfonyl)phenyl]-3(2H)-pyridazinone] | 51% | 185 to 189 °C and 188 to 191 °C | 51% | 15% | 82% | – | – | – | – | – | – | – | – | 78% | 99% | – | 49% | – |
| NS(=O)(=O)c1ccc(-c2cnn(-c3ccc(F)c(F)c3)c(=O)c2-c2ccc(F)cc2)cc1 [Example 400] | 65% | 177 to 181 °C | 82.5% | 41% | 27% | 142 nM | – | – | – | – | 26 nM | 300 nM | – | – | – | – | – | – |
